This note sets out measurements from patent US20240003908A1, “POLYOL BIOMARKERS FOR CONGENITAL DISORDERS OF GLYCOSYLATION” (Mayo Foundation for Medical Education and Research, priority 2020, published 2024).

One series deals with urine sorbitol. In words: Urine sorbitol (GC/MS) in a PMM2-CDG pediatric patient on oral epalrestat therapy. Type of series: in vivo, human. The protocol: Clinical studies: Epalrestat was used as an N of 1 study for a single pediatric patient with PMM2-CDG. An open label, single patient compassionate use study designed to assess the safety and tolerability of oral epalrestat therapy in a child with PMM2-CDG. The patient received […]. Concomitant medications, vital signs, blood draw for serum chemistry and hematology, and blood levels of epalrestat were collected at each study visit during a 6 month period to evaluate the safety and tolerability of oral epalrestat therapy in a child with PMM2-CDG. The Nijmegen Pediatric CDG Rating Scale (NPCRS) assessment was administered at the start of the study and at 6 months. Urine polyols were collected at the start, at 4 months, and at 6 months of therapy, and were measured as described elsewhere (Jansen et al., Clin Chim Acta 1986, 157:277-294). Briefly, 200 μl urine specimens were spiked with a mixture of labeled internal standards, allowed to equilibrate, and evaporated. […] Specimens were analyzed by GC/MS, selected ion monitoring using ammonia chemical ionization and a stable isotope dilution method. In general, the following protocol was used: • Creatinine (CR) values (mg/dL) were determined for all samples. • Multiplication factors were calculated for each patient sample. • 100 μL of Polyol QC Mix for the QC Standard and 100 μL water were pipetted into a labeled 16×100 screw-cap glass tube. • 200 μL each of low control and high control were pipetted into corresponding labeled 16×100 mm screw-cap glass tubes. • 200 μL of each patient sample was pipetted into a corresponding labeled 16×100 mm screw cap glass tube. […]
Urine sorbitol and mannitol levels also were quantified using similar processing of samples and GC/MS settings, monitoring ions specific for sorbitol and mannitol for peak area ratio calculations.
Patient assessment: Prior to the first dose of epalrestat and at 1, 2, 3, 6, 8, 9, 12 months during treatment, concomitant medications and vital signs were recorded and the patient was evaluated using the NPCRS. […]

Another series relates to child with PMM2-CDG. The series can be described thus: Single patient (P1) study: safety and tolerability of oral epalrestat. Type of series: in vivo, human. The conditions noted are these: for liver elastography Interquartile Range to Median ratio: normal below 25%. As to the method:
Study design: An open label, single patient (P1) compassionate use study was designed to assess the safety and tolerability of oral epalrestat therapy in a child with PMM2-CDG.
Patient assessment: Prior to the first dose of epalrestat and at 1, 2, 3, 6, 8, 9, 12 months during treatment, concomitant medications and vital signs were recorded and the patient was evaluated using the NPCRS. In addition, blood was drawn for serum chemistry, hematology, and plasma levels of epalrestat. Urine was collected for polyol measurement at baseline and twice over the course of 12 months of therapy.
Drug administration: Epalrestat was administered orally, 3 times per day (TID) before meals in a divided dose (0.8 mg/kg/day; 5 mg TID) of epalrestat (Ono Pharmaceuticals, Osaka, Japan) starting on Day 1 of the study.
Safety and efficacy: Safety measures included vital signs, change in CBC, liver function (INR, bilirubin, transaminases, and albumin) in blood, change in liver elastography, and following the pharmacokinetic profile of epalrestat. The efficacy of epalrestat was studied by clinical follow up (physical exam, NPCRS, ICARS), standard laboratory tests, and transferrin glycoform analysis by mass spectrometry.

Setting [1] is: patient P1, throughout the study.

Several values for one entry are separate records, joined by “and”; a condition that tells them apart may be missing. Identical values can stand only once.

With `CC(/C=C1\SC(=S)N(CC(=O)O)C1=O)=C\c1ccccc1` [epalrestat], the urine sorbitol level was 6.2 mmol/mol creatinine and 6.20 mmol/mol creatinine with urine sorbitol (6 months of epalrestat therapy, prior to treatment 19.93, controls <5); 5.78 mmol/mol creatinine in the series with urine sorbitol (after 3 months of epalrestat therapy, before therapy 19.93, controls <5); 5.0 mmol/mol creatinine in the series with urine sorbitol (after 4 months of epalrestat treatment, prior to treatment 19.93, controls <5). Also, the “liver elastography Interquartile Range to Median ratio” value in the series on child with PMM2-CDG (after 1 month of therapy, prior to therapy 14%) was 12%; in the series on child with PMM2-CDG (at 6 months), 20%; in the series on child with PMM2-CDG (at 12 months), 8%. Moreover, the liver elastography result in the series with child with PMM2-CDG (patient P1) is on record as “remained normal”. Besides, the adverse events entry with child with PMM2-CDG (patient P1, 0.27 mg/kg three times a day, 12 months) was “No adverse events”. Further, the “CBC with differential, transaminases, bilirubin, and albumin” value with child with PMM2-CDG (setting [1]) was “remained normal”. For the same compound, the “antithrombin III levels and International normalized ratio (INR)” value in the series with child with PMM2-CDG (setting [1]) was “remained at normal levels”. Also, in the series with child with PMM2-CDG (setting [1]), the vital signs result is reported as “remained normal”.
